Laboratory results taken from patent publication US20230172894A1, “COMBINATION TREATMENT FOR FUMARATE-RELATED DISEASES” (IMCYSE SA, priority 2020, published 2023).
Where a name gives a salt, the structure may show the parent alone. Read-outs that look alike come from different tables or passages of the source.

How the values were obtained:
[1] = test system: experimental auto-immune encephalomyelitis (EAE) development in mice; experiment: Example 1: spinal cord histology (H&E inflammatory foci, anti-MBP demyelination score) in EAE mice; assay type: in vivo, female C57BL/6 mice; settings: vs negative control, combination also vs each single treatment
Method: At the end of the study, all mice were euthanized, and spines were collected and placed in 10% buffered formalin for histological analysis.
For each spine, one H&E stained slide and one anti-MBP stained slide were prepared and analyzed. Each slide contained a section with samples from lumbar, thoracic and cervical of spinal cord (3 samples). All analysis was performed by a pathologist blinded to the experimental groups and all clinical readouts.
Inflammatory foci of approximately 20 cells were counted in each H&E stained section. When inflammatory infiltrates consisted of more than 20 cells, an estimate was made of how many foci of 20 cells were present.
Demyelination was scored in each anti-MBP (using immunohistochemistry) stained section. In anti-MBP sections, demyelination is observed as conspicuous unstained areas in white matter tracts and is associated with presence of large vacuoles. The demyelination score represents an estimate of demyelinated area for each section as follows: […]

[2] = test system: experimental auto-immune encephalomyelitis (EAE) development in mice; settings: Example 3; for mice died in group: 16 mice per group
Description: Example 3: Effect of the therapeutic administration of an immunogenic peptide comprising a MOG35-55 MHCII T cell epitope linked to a KCRC (SEQ ID NO: 65) or KCRPYC (SEQ ID NO: 84) oxidoreductase motif in combination with dimethyl fumarate (BG-12, […]™) on experimental auto-immune encephalomyelitis (EAE) development in mice.
The study used a total of 128 female C57BL/6 mice (Taconic Biosciences, 9 weeks old on Day 0). Mice were acclimated for 7 days prior to the first injection. Mice were assigned to groups in a balanced manner to achieve similar average weight across the groups at the start of the study.
Treatment 1 was administered once on each of the days indicated in Table 4, s.c., at a volume of 0.05 mL/site, each mouse receiving injection at two sites, for a total of 0.1 mL/mouse/dosing day. IMCY-0189 (CXXC oxidoreductase motif, IMCY-0453 (CXC oxidoreductase motif) or IMCY-0455 (CXXXC oxidoreductase motif) peptide total dose was 30 μg per administration.
(§1) BG-12 was dosed at 100 mg/kg.
(§2) All dosing were done at the same time (+/−1 hour) each dosing day. For the BID groups there were no less than 10 and no more than 14 hours between doses.
(§3) (SEQ ID NO: 266), comprising an oxidoreductase motif KCRC (SEQ ID NO: 65), a linker GW, a murine Myelin Oligodendrocyte Glycoprotein (MOG35-55) MHCII T cell epitope […] (SEQ ID NO: 169) and a flanking sequence HLYR (SEQ ID NO: 186) (Smart Bioscience) was solubilized immediately before use. Lyophilized IMCY-0453 was thawed at room temperature for 10 minutes, resuspended in Na Acetate buffer 50 mM NaCl 0.9% pH 5.4 and incubated at room temperature for 10 minutes. Reconstituted peptide was then mixed with Imject™ Alum Adjuvant before injection.
as §3, with “268),” for “266),”, “KCRPYC” for “KCRC”, “84),” for “65),”, “IMCY-0455” for “IMCY-0453”
(§4) Treatment 2 was prepared as described in example 2.
EAE induction, scoring and statistical analysis were performed as described in example
(§5) EAE development was evaluated by comparing clinical EAE readouts for all groups to the negative control (Saline/Vehicle) group.

[3] = test system: experimental auto-immune encephalomyelitis (EAE) development in mice; experiment: Example 3: serum neurofilament light (NF-L) levels in EAE mice; assay type: in vivo, female C57BL/6 mice; settings: Day 28 serum, vs negative control
Method: (§6) On Day 28, blood was collected from all mice into gel clot activator tubes and allowed to clot at room temperature for ˜30 minutes. Blood is then centrifuged at ˜10000 g for 5 minutes. Serum was transferred into Eppendorf tubes and stored at −80° C. until shipment to Quanterix™. Serum Neurofilament light (NF-L) protein levels were quantified using Simoa® NF-light Advantage kit as described in example 1.

[4] = test system: experimental auto-immune encephalomyelitis (EAE) development in mice; settings: Example 4; for mice died in group: 16 mice per group; for disease onset: peptide 30 μg/Alum s.c. days 4, 9, 14, 19, BG-12 100 mg/kg p.o. BID days 0 to 27; for disease onset / AUC (area under the curve) of EAE scores / MMS (mean maximal score) / end score (clinical EAE score 0-5): vs negative control, combinations also vs peptides only or BG-12 only
Description: Example 4: Effect of the therapeutic administration of an immunogenic peptide comprising a human MOG201-212 MHCII T cell epitope linked to a KHCPYC oxidoreductase motif in combination with dimethyl fumarate (BG-12, […]™) on experimental auto-immune encephalomyelitis (EAE) development in mice.
The study used a total of 96 female C57BL/6 mice (Taconic Biosciences, 9 weeks old on Day 0). Mice were acclimated for 7 days prior to the first injection. Mice were assigned to groups in a balanced manner to achieve similar average weight across the groups at the start of the study.
Treatment 1 was administered once on each of the days indicated in Table 5, s.c., at a volume of 0.05 mL/site, each mouse receiving injection at two sites, for a total of 0.1 mL/mouse/dosing day. IMCY-0189 or P4 peptide total dose was 30 μg per administration.
as §1, §2
Lyophilized immunogenic peptide P4 with the sequence […] (SEQ ID NO: 176), comprising an oxidoreductase motif KHCPYC (SEQ ID NO: 77), a linker VRY, a human Myelin Oligodendrocyte Glycoprotein (MOG201-212) MHCII T cell epitope […] (SEQ ID NO: 165) and a flanking sequence TLFKK (SEQ ID NO: 267) (Smart Bioscience) was solubilized immediately before use. Lyophilized P4 was thawed at room temperature for 10 minutes, resuspended in Na Acetate buffer 50 mM NaCl 0.9% pH 5.4 and incubated at room temperature for 10 minutes. Reconstituted peptide was then mixed with Imject™ Alum Adjuvant before injection.
as §4
EAE induction, scoring and statistical analysis were performed as described in example 2.
as §5

[5] = test system: experimental auto-immune encephalomyelitis (EAE) development in mice; experiment: Example 4: serum neurofilament light (NF-L) levels in EAE mice; assay type: in vivo, female C57BL/6 mice; settings: Day 28 serum, vs negative control
Method: as §6
Serum neurofilaments levels were quantified as described in example 3.

COC(=O)/C=C/C(=O)OC [BG-12, dimethyl fumarate, reference compound]
level of inflammation (inflammatory foci in H&E stained spinal cord sections) [1]: reduced level of inflammation, although not statistically significant | mice died in group [2]: No mice died | disease onset ([2]; peptide 30 μg/Alum s.c. days 4, 9, 14, 19, BG-12 100 mg/kg p.o. BID days 0 to 27, vs negative control): postponed disease onset | AUC (area under the curve) of EAE scores ([2]; vs negative control): statistically significant reduced | MMS (mean maximal score) ([2]; vs negative control): statistically significant reduced | end score (clinical EAE score 0-5) ([2]; vs negative control): reduced end score | serum NF-L levels [3]: statistically significant reduced NF-L levels | mice died in group [4]: No mice died | disease onset [4]: postponed disease onset | AUC (area under the curve) of EAE scores [4]: statistically significant reduced | MMS (mean maximal score) [4]: statistically significant reduced | end score (clinical EAE score 0-5) [4]: reduced end score | serum NF-L levels [5]: statistically significant reduced NF-L levels

HCPYCGWYRSPFSRVVHLYR [IMCY-0189]
level of demyelination (anti-MBP stained sections, score 0-5) [1]: reduced level of both inflammation and demyelination, although not statistically significant | level of inflammation (inflammatory foci in H&E stained spinal cord sections) [1]: reduced level of both inflammation and demyelination, although not statistically significant | mice died in group [2]: No mice died | serum NF-L levels [3]: statistically significant reduced NF-L levels | mice died in group [4]: No mice died | disease onset [4]: postponed disease onset | AUC (area under the curve) of EAE scores [4]: statistically significant reduced | MMS (mean maximal score) [4]: statistically significant reduced | end score (clinical EAE score 0-5) [4]: reduced end score | serum NF-L levels [5]: statistically significant reduced NF-L levels
